Consider 1 compound from patent US20230317203A1, “SCREENING METHOD” (University of Leeds, priority 2022, published 2023).

One experiment addresses BRISC Abraxas2 Ile133Trp (Homo sapiens, UniProt P46736+Q15018+Q9NXR7, I133W). The experiment can be described thus: IQF DUB assay, BRISC mutant Abraxas2 Ile133Trp. The format is biochemical. To be noted: FIG. 4B. As for the experimental part:
(§1) The four-subunit human BRISC (full-length (FL) and MERIT40ΔN, Abraxas2ΔC) complex was cloned using the MultiBac system and co-expressed in Spodoptera frugiperda (Sf9) insect cells^32. BRISC mutants were cloned into pFastBac vectors in the Bac-to-Bac system (ThermoFisher), baculoviruses generated in Sf9 cells and used for co-infection of Trichoplusia ni (Tni) cells. All BRISC complexes were purified as previously described^12,13.
(§2) BRISC complexes were tested for activity in DUB reaction buffer containing 50 mM HEPES-NaOH pH 7.0, 100 mM NaCl, 0.1 mg/mL BSA, 1 mM DTT, and 0.003% Brij-35. […] Inhibitors were assayed at concentrations up to 200 μM. […] DUB activity was measured using internally quenched fluorescent (IQF) K63-linked diUb (Lifesensors, catalogue number: DU6303) at 50 or 100 nM. Cleaved diUb was monitored by measuring fluorescence intensity (Ex. 540 nm, Em. 580 nm; dichroic mirror 560 nm). Fluorescence intensity was measured every minute for 30 minutes at 30° C. Fluorescence intensity units for the first 10 minutes were plotted against time to generate a linear reaction progress curve, where the initial velocity (v0) corresponds to the gradient of the curve. IC50 values were calculated using the GraphPad Prism (v8.0) built-in dose-response equation for inhibitor concentration vs. response (variable slope). […]

The next experiment concerns the target BRISC Abraxas2 Thr135Lys (Homo sapiens, UniProt P46736+Q15018+Q9NXR7, T135K). The experiment can be described thus: IQF DUB assay, BRISC mutant Abraxas2 Thr135Lys. The format is biochemical. As to conditions: FIG. 4B. As for the experimental part:
as §1, §2

The target of a further experiment is BRISC BRCC36 Arg167Ala (Homo sapiens, UniProt P46736+Q15018+Q9NXR7, R167A). Nature of the experiment: IQF DUB assay, BRISC mutant BRCC36 Arg167Ala. The format is biochemical. To be noted: FIG. 4B. As to the method: as §1, §2
For another experiment, the system named is BRISC BRCC45 mutants. Nature of the experiment: IQF DUB assay, BRISC BRCC45 mutants. The format is biochemical, human. To be noted: four BRCC45 residues mutated, FIG. 4B. As to the method: as §1, §2
Another experiment concerns the target BRISC BRCC36 Leu169Ala (Homo sapiens, UniProt P46736+Q15018+Q9NXR7, L169A). The experiment can be described thus: IQF DUB assay, BRISC mutant BRCC36 Leu169Ala. The format is biochemical. As to conditions: FIG. 4B. As for the experimental part:
as §1, §2

Another experiment addresses BRISC Abraxas2 Thr140Ala (Homo sapiens, UniProt P46736+Q15018+Q9NXR7, T140A). Nature of the experiment: IQF DUB assay, BRISC mutant Abraxas2 Thr140Ala. The format is biochemical. To be noted: FIG. 4B. As to the method:
as §1, §2

In experiment [1] the target is T1, BRISC (Homo sapiens, UniProt P46736+Q15018+Q9NXR7). The experiment can be described thus: IQF K63-linked diUb DUB activity assay, BRISC. The format is biochemical. Details: made in house; host or cells: Spodoptera frugiperda (Sf9) insect cells. To be noted: IQF assay, fluorescent di-ubiquitin substrate, FIG. 1F. As to the method: BRISC complexes were tested for activity in DUB reaction buffer containing 50 mM HEPES-NaOH pH 7.0, 100 mM NaCl, 0.1 mg/mL BSA, 1 mM DTT, and 0.003% Brij-35. […] Inhibitors were assayed at concentrations up to 200 μM. 20 μL enzyme reactions were carried out in 384-well black flat-bottom low flange plates (Corning; 35373). DUB activity was measured using internally quenched fluorescent (IQF) K63-linked diUb (Lifesensors, catalogue number: DU6303) at 50 or 100 nM. Cleaved diUb was monitored by measuring fluorescence intensity (Ex. 540 nm, Em. 580 nm; dichroic mirror 560 nm). Fluorescence intensity was measured every minute for 30 minutes at 30° C. Fluorescence intensity units for the first 10 minutes were plotted against time to generate a linear reaction progress curve, where the initial velocity (v0) corresponds to the gradient of the curve. IC50 values were calculated using the GraphPad Prism (v8.0) built-in dose-response equation for inhibitor concentration vs. response (variable slope).
A high throughput biochemical screen was designed to identify inhibitors of BRISC, based on the ability of small molecules to inhibit BRISC cleavage of a K63-linked di-ubiquitin substrate. The di-ubiquitin substrate is designed with a fluorescent TAMRA dye on the proximal ubiquitin moiety and fluorescence quencher on the distal ubiquitin molecule (FIG. 1A). Upon isopeptidase bond cleavage, fluorescence is detected, enabling continuous fluorescent readout of deubiquitylase activity over time (FIG. 1A). The assay conditions were optimised and used to test an in-house compound library comprising of ˜300 published and custom-made kinase inhibitors. From this screen, two hits were identified, compounds AT7519 (well H20) and YM201636 (well P12) (FIG. 1B). The specificity of these compounds was assessed against the broad-spectrum DUB ubiquitin-specific protease-2 (USP2) and the serine protease trypsin which cleave K63-Ub substrate under the same conditions. […] UV-Vis spectroscopy analyses of the compound in well H20 used in the screen compared to the Synkinase and Sellechem AT7519 compounds identified an additional peak in the H20 spectra (FIG. 5C). […] The synthesis of the two isomers was confirmed using mass spectrometry fragmentation analyses (FIG. 5E) and the inhibitory effect of the isomers was tested against BRISC.

In the next experiment the target is BRISC BRCC36 Trp130Ala (Homo sapiens, UniProt P46736+Q15018+Q9NXR7, W130A). The experiment can be described thus: IQF DUB assay, BRISC mutant BRCC36 Trp130Ala. To be noted: FIG. 4B. The format is biochemical. As to the method:
as §1, §2

Experiment [2] addresses T1, BRISC. The experiment can be described thus: BRISC-mediated tetraubiquitin chain cleavage by Western blotting. To be noted: K63-linked Ub4, Western blot, FIG. 6B. Details: made in house; host or cells: Spodoptera frugiperda (Sf9) insect cells. The format is biochemical. From the text:
The potency of these analogues was characterised in the IQF assay with a fluorescent di-ubiquitin substrate. […] We confirmed the ability of these inhibitors to block BRISC-mediated tetraubiquitin chain cleavage by Western blotting (FIG. 6B).
Background: In western blotting, separated proteins are transferred to a membrane and probed.

For `O=C(NC1C2CNCC21)c1nn(C(=O)c2c(Cl)cccc2Cl)cc1NC(=O)c1c(Cl)cccc1Cl` (stereo not drawn) [FX-171-C], the “inhibitor sensitivity of mutant” value is listed as “no effect on inhibitor sensitivity” at BRISC Abraxas2 Ile133Trp; “no effect on inhibitor sensitivity” at BRISC Abraxas2 Thr135Lys; “remained inhibitor sensitive” against BRISC BRCC36 Arg167Ala; “severely affected” at BRISC BRCC36 Leu169Ala; “severely affected” against BRISC BRCC36 Trp130Ala. Further, the “ability to recognise the inhibitor” value in the experiment with BRISC BRCC45 mutants is given as “reduced”. Moreover, at BRISC Abraxas2 Thr140Ala, the “IC50 higher than BRISC WT” value came out at 10 fold. The “IC50 compared to JMS-175-2” value against BRISC [1] was “slightly improved”. Further, the “inhibition of tetraubiquitin chain cleavage” value on BRISC [2] is on record as “Dose-dependent inhibition”.
